≈ marks a conversion by molar mass, not a printed value. Read-outs that look alike come from different tables or passages of the source.
What was measured:
[1] = test system: Clostridium perfringens (ATCC 13124); assay type: cell-based
[2] = test system: Clostridium perfringens (ATCC 13124)
T84 cells = details: human
Caco-2 cells = details: human
T84 cells (ATCC CCL-248) = test: cells; assay type: cell-based, human; details: read-out: IC50 (concentration causing 50% cell death)
[3] = test system: Caco-2 cells (ATCC HTB-37); test: cells; assay type: cell-based, human; details: read-out: IC50 (concentration causing 50% cell death)
[4] = test system: Clostridium coccoides (DSM 935); test: microbe, parasite or virus in culture; assay type: cell-based
[5] = test system: Clostridium perfringens (ATCC13124); assay type: cell-based
[6] = test system: Enterococcus faecalis (DSM 13591); test: microbe, parasite or virus in culture; assay type: cell-based
[7] = test system: Clostridium difficile (DSM 1296); test: microbe, parasite or virus in culture; assay type: cell-based
IPEC-J2 cells [8] = test: cells; assay type: cell-based, pig; details: read-out: IC50 (concentration causing 50% cell death)
[9] = test system: Clostridium botulinum (DSM 1985); test: microbe, parasite or virus in culture; assay type: cell-based
[10] = test system: Bacteroides thetaioataomicron (DSM 2255); test: microbe, parasite or virus in culture; assay type: cell-based
[11] = test system: Clostridium nexile (DSM 1787); test: microbe, parasite or virus in culture; assay type: cell-based
[12] = test system: human or porcine intestinal cells grown on inserts; details: human, pig
[13] = test system: Clostridium propionicum (DSM 6251); test: microbe, parasite or virus in culture; assay type: cell-based
[14] = test system: Propionibacterium acnes (ATCC 6919); test: microbe, parasite or virus in culture; assay type: cell-based
IPEC-J2 cells [15] = details: pig
[16] = test system: Lactobacillus acidophilus (DSM 20079); test: microbe, parasite or virus in culture; assay type: cell-based
[17] = test system: human (Caco-2 and T84) and pig (IPEC-J2) intestinal cells
[18] = test system: Streptococcus thermophilus (ATCC LMD-9); test: microbe, parasite or virus in culture; assay type: cell-based
[19] = test system: Streptococcus pyogenes (DSM 20565); test: microbe, parasite or virus in culture; assay type: cell-based
[20] = test system: Helicobacter pylori (ATCC 43504); test: microbe, parasite or virus in culture; assay type: cell-based
[21] = test system: Klebsiella variicola (DSM 15968); assay type: cell-based
[22] = test system: Shigella flexneri (ATCC 12022); assay type: cell-based
Bacillus cereus (DSM 31) = assay type: cell-based
[23] = test system: Pseudomonas aeruginosa (CIP 107398); assay type: cell-based
[24] = test system: Fusarium verticillioides (DSM 62264); assay type: cell-based
[25] = test system: Bacillus subtilis (DSM 347); assay type: cell-based
[26] = test system: Salmonella enterica (CIP 80.39); assay type: cell-based
[27] = test system: Lactococcus lactis (DSM 20481); assay type: cell-based
[28] = test system: Micrococcus luteus (DSM 20030); assay type: cell-based
[29] = test system: Acinetobacter baumannii (CIP 110431); assay type: cell-based
[30] = test system: Arthrobacter gandavensis (DSM 2447); assay type: cell-based
[31] = test system: Citrobacter farmeri (ATCC 51633); assay type: cell-based
[32] = test system: Fusarium graminearum (DSM 1095); assay type: cell-based
[33] = test system: Staphylococcus aureus (ATCC 6538P); assay type: cell-based
[34] = test system: Mycobacterium smegmatis (ATCC 700084); assay type: cell-based
[35] = test system: Aspergillus flavus (DSM 1959); assay type: cell-based
[36] = test system: Citrobacter rodentium (ATCC 51116); assay type: cell-based
[37] = test system: Escherichia coli (ATCC 8739); assay type: cell-based
[38] = test system: Fusarium oxysporum (DSM 62316); assay type: cell-based
[39] = test system: Aspergillus niger (ATCC 9142); assay type: cell-based
[40] = test system: Candida albicans (DSM 10697); assay type: cell-based
[41] = test system: Listeria monocytogenes (DSM 20600); assay type: cell-based
[42] = test system: Penicillium verrucosum (DSM 12639); assay type: cell-based
[43] = test system: Aspergillus ochraceus (DSM 824); assay type: cell-based
[44] = test system: Klebsiella pneumoniae (DSMZ 26371); assay type: cell-based
[45] = test system: Staphylococcus aureus MRSA USA300 (ATCC BAA-1717); assay type: cell-based
[46] = test system: Clostridium perfringens strain (ATCC 13124) and clinical strains of Clostridium perfringens; assay type: cell-based
[47] = test system: Clostridium perfringens (ATCC 13124); assay type: cell-based; remark: listed apart in the source

O=C(N[C@H](CO)[C@H](O)c1ccc([N+](=O)[O-])cc1)C(Cl)Cl [Chloramphenicol]
morphological phenotype (mechanism of action) ([1]; 5 times MIC, 2 hours, FM4-64FX and DAPI labelling): hypercondensation of bacterial DNA

CCCCCCCCCC(=O)N[C@@H](Cc1c[nH]c2ccccc12)C(=O)N[C@H](CC(N)=O)C(=O)N[C@@H](CC(=O)O)C(=O)N[C@@H]1C(=O)NCC(=O)N[C@@H](CCCN)C(=O)N[C@@H](CC(=O)O)C(=O)N[C@H](C)C(=O)N[C@@H](CC(=O)O)C(=O)NCC(=O)N[C@H](CO)C(=O)N[C@@H]([C@H](C)CC(=O)O)C(=O)N[C@@H](CC(=O)c2ccccc2N)C(=O)O[C@@H]1C [Daptomycin]
MIC ([2]; ATCC 13124): 8 µM (≈ 13 µg/mL) | MIC (mg/L) ([2]; ATCC 13124): 12.96 mg/L (≈ 8 µM)

Cc1ncc([N+](=O)[O-])n1CCO [Metronidazole]
transepithelial electrical resistance (T84 cells): 293 +/− 12.3 ohm.cm2 | transepithelial electrical resistance (Caco-2 cells): 252 +/− 13.7 ohm.cm2 | IC50 (T84 cells (ATCC CCL-248); Homo sapiens, T84, 48 h): > 1500 µM | IC50 ([3]; Homo sapiens, Caco-2, 48 h): > 1500 µM | MIC ([4]; Blautia producta, DSM935): 0.29 µM (≈ 0.0496 µg/mL) | increase in MIC ([5]; after 7 days of contact): 10 fold | increase in MIC ([5]; after 9 days of contact): 50-100 fold | MIC ([6]; Enterococcus faecalis, DSM13591): > 1500 µM | MIC ([7]; Clostridioides difficile, DSM1296): 1.17 µM (≈ 0.2 µg/mL) | IC50 (IPEC-J2 cells [8]; Sus scrofa, IPEC-J2, 48 h): > 1500 µM | MIC ([9]; Clostridium botulinum, DSM1985): 0.29 µM (≈ 0.0496 µg/mL) | MIC ([10]; Bacteroides, DSM2255): 2.34 µM (≈ 0.401 µg/mL) | MIC ([11]; Faecalimonas nexilis, DSM1787): 2.34 µM (≈ 0.401 µg/mL) | decrease in transepithelial electrical resistance [12]: 0-34% | MIC ([13]; Anaerotignum propionicum, DSM6251): 1.17 µM (≈ 0.2 µg/mL) | MIC ([14]; Cutibacterium acnes, ATCC6919): 1500 µM (≈ 257 µg/mL) | transepithelial electrical resistance (IPEC-J2 cells [15]): 875 +/− 203 ohm.cm2 | MIC ([16]; Lactobacillus acidophilus, DSM20079): > 1500 µM | toxicity to intestinal cells [17]: not toxic | MIC ([18]; Streptococcus thermophilus): 1500 µM (≈ 257 µg/mL) | MIC ([19]; Streptococcus pyogenes, DSM20565): > 1500 µM | MIC (mg/L) ([2]; Clostridium perfringens, ATCC13124): 1.60 mg/L (≈ 9.35 µM) | MIC ([20]; Helicobacter pylori, ATCC 21031 / ATCC 43504): > 1500 µM

Bafilomycin B1
MIC [21]: >100 µM | MIC [22]: >100 µM | MIC (Bacillus cereus (DSM 31)): 25 µM | MIC [23]: >100 µM | MIC [24]: 50 µM | MIC [4]: 30 µM | MIC [25]: 20 µM | MIC [26]: >100 µM | MIC [27]: 50 µM | MIC [28]: 25 µM | MIC [6]: 40 µM | MIC [29]: >100 µM | MIC [7]: >100 µM | MIC [30]: 3 µM | MIC [31]: >100 µM | MIC [9]: 30 µM | MIC [32]: 25 µM | MIC [33]: 10 µM | MIC [34]: >100 µM | MIC [10]: >100 µM | MIC [35]: 3.25 µM | MIC [36]: >100 µM | MIC [37]: >100 µM | MIC [11]: 60 µM | MIC [38]: 50 µM | MIC [39]: 100 µM | MIC [13]: 25 µM | MIC [14]: 60 µM | MIC [40]: 100 µM | MIC [41]: 50 µM | MIC [16]: 10 µM | MIC [42]: 6.25 µM | MIC [43]: 6.25 µM | MIC [18]: 30 µM | MIC [44]: >100 µM | MIC [19]: 20 µM | MIC [45]: 20 µM | MIC [2]: 10 µM | MIC (mg/L) [2]: 8.15 mg/L | MIC [20]: >100 µM

Destruxin A
MIC [21]: >100 µM | MIC [22]: >100 µM | IC50 (T84 cells (ATCC CCL-248)): > 100 µM | IC50 [3]: > 100 µM | MIC (Bacillus cereus (DSM 31)): >100 µM | MIC [23]: >100 µM | MIC [24]: >100 µM | MIC [4]: >100 µM | MIC [25]: >100 µM | MIC [26]: >100 µM | MIC [27]: >100 µM | MIC [28]: >100 µM | change of MIC during exposure [5]: do not change or change only slightly | MIC [6]: >100 µM | MIC [29]: >100 µM | MIC [7]: >100 µM | MIC [30]: >100 µM | IC50 (IPEC-J2 cells [8]): > 100 µM | MIC [31]: >100 µM | MIC [9]: >100 µM | MIC [32]: >100 µM | MIC [33]: >100 µM | MIC [34]: >100 µM | MIC [10]: >100 µM | MIC [35]: >100 µM | MIC [36]: >100 µM | MIC [37]: >100 µM | MIC [11]: >100 µM | MIC [38]: >100 µM | MIC [39]: >100 µM | MIC [13]: >100 µM | morphological phenotype (mechanism of action) [1]: hypercondensation of bacterial DNA | MIC [14]: >100 µM | MIC [40]: >100 µM | minimum bactericidal concentrations (BMC values) [46]: identical to the MIC values | MIC [41]: >100 µM | MIC [16]: >100 µM | MIC [42]: >100 µM | toxicity to intestinal cells [17]: not toxic | MIC [43]: >100 µM | MIC [18]: >100 µM | MIC [44]: >100 µM | permeabilisation of the bacterial membrane [47]: no permeabilisation | MIC [19]: >100 µM | MIC [45]: >100 µM | MIC (mg/L) [2]: 0.86 mg/L | MIC [20]: >100 µM

Enniatin A1
IC50 (T84 cells (ATCC CCL-248)): 4.5 µM | IC50 [3]: 3.1 µM | MIC [23]: >100 µM | MIC [25]: 25 µM | MIC [6]: 6.25 µM | IC50 (IPEC-J2 cells [8]): 5.1 µM | MIC [33]: 25 µM | MIC [37]: >100 µM | MIC [40]: 3.125 µM | toxicity to intestinal cells [17]: toxic | MIC [2]: 6.25 µM | MIC (mg/L) [2]: 4.16 mg/L
